In patent US20260216180A1, “QUINOLINE DERIVATIVE COMPOUNDS OR PHARMACEUTICALLY ACCEPTABLE SALT THEREOF, PREPARATION METHOD THEREFOR AND USE THEREOF” (JIANGSU CAREPHAR PHARMACEUTICAL CO.,LTD., priority 2023, published 2026):

Experiments:
Assay type in all cases: cell-based
miR-124 = assay: Regulation of miR-124 expression in a PBMC in vitro model (qPCR); settings: 5 μM test compound, 24 h, human PBMC stimulated with PHA-L and IL-2; miR-191 internal reference; read-out: Relative expression of miR-124, fold change compared with DMSO-treated cells
Method: Pharmacological Activity Test: Regulation of miR-124 Expression by the Quinoline Derivatives in a PBMC In Vitro Model
• a. human PBMC cells • b. PHA-L • c. IL-2 • d. mirVana™ miRNA Extraction kit • e. TaqMan Advanced miRNA cDNA Synthesis Kit • f. TaqMan Fast Gene Expression Master Mix • g. TaqMan Advanced miRNA Assay (mir191) • h. TaqMan Advanced miRNA Assay (mir124)
Human PBMC cells were resuscitated. The cell suspension was transferred to a 75 cm^2 culture flask containing 13 mL of culture medium. The cells were cultured overnight in a 37° C., 5% CO2 incubator. The cell suspension was then collected in a conical flask, centrifuged at 1200 rpm for 5 minutes, and the supernatant was discarded. The cells were resuspended in 1 mL of fresh culture medium, and then the cell clumps were gently blown apart and inoculated into a 6-well plate at a density of 4*10^6 cells/mL. 5 μg/mL PHA-L and 10 ng/mL IL-2 were added to each well. The cells were incubated in the incubator for 48 hours. 5 μM of the test compound was added to each well of a 6-well plate, and 0.1% DMSO was added to the blank control wells, and the plate was incubated at 37° C. for 24 h. Cells were collected, Total RNA was isolated and extracted according to the procedure of the mirVana™ miRNA Extraction Kit, and cDNA was prepared according to the procedure of the TaqMan Advanced miRNA cDNA Synthesis Kit. MiR-191 was used as the internal reference gene for qPCR test.
That is, RNA sample→poly (A) tailing reaction→adapter reaction→reverse transcription (RT) reaction→miR-amplification reaction→qPCR test.
The qPCR procedure includes: 50° C. 2 min; 95° C. 20 s; 95° C. 1 s, a 60° C. 20 s, 40 cycles.
The relative gene expression was calculated using the following formula: ΔCt=Ct (miR-124)−Ct (miR-191)
Relative miRNA expression=2^−ΔCt.

TNF-α = assay: Macrophage TNF-α secretion after LPS (ELISA); settings: Bone marrow macrophage, compared to 0 μM, mouse bone marrow macrophages, 200 ng/ml LPS, 6 hours, read-out: Inhibition rate of TNFα at 10 μM concentration
Method: (§1) Pharmacological Activity Test: Regulatory Effect of Quinoline Derivatives on Macrophage IL-6 and TNF-α Secretion
(§2) Mouse bone marrow cells were isolated from the femur and tibia bone marrow of […] mice of 6-8 week old raised under SPF conditions and inoculated in 6-well plates at a density of 1.5*10^6 cells/well/2 mL. 50 ng/mL M-CSF was added to each well and the cells were cultured in a CO2 incubator for 3 days. On the third day, the culture medium was replaced with fresh medium containing 100 ng/mL M-CSF and the culture was continued for 3 days. On the 6th day, the supernatant was removed and the cells were washed once with DPBS. After adding 1 mL of DPBS, the macrophages were harvested using a cell scraper, centrifuged at 400 g for 10 min, and the supernatant was discarded. The cells were resuspended in fresh culture medium containing 50 ng/mL M-CSF, inoculated in a 96-well plate at a density of 2*10^4 cells/well/200 μL, and cultured in a CO2 incubator overnight. 0, 3, 5, […] of the test compound were added to each well (wherein well 0 contains 0.1% DMSO) respectively and incubate in a CO2 incubator for 1 hour. Then 200 ng/ml LPS was added and the cell supernatant was collected after 6 hours of co-culture. ELISA kits were used to detect the secretion levels of IL-6 and TNF-α.

IL-6 = assay: Macrophage IL-6 secretion after LPS (ELISA); settings: Bone marrow macrophage, compared to 0 μM, mouse bone marrow macrophages, 200 ng/ml LPS, 6 hours, read-out: Inhibition rate of IL-6 at 10 μM concentration
Method: as §1, §2

Compound | fold induction at 5 µM (miR-124) | inhibition at 10 µM (TNF-α) [%] | inhibition at 10 µM (IL-6) [%]
FC(F)(F)C1(c2cnc(Nc3ccc4cccc(Cl)c4n3)nc2)CC1 [Compound 24, 8-chloro-N-(5-(1-(trifluoromethyl)cyclopropyl)pyrimidin-2-yl)quinolin-2-amine] | 1.99 |  | 
FC(F)C1(c2ccc(Nc3ccc4cccc(Cl)c4n3)cc2)CC1 [Compound 1, 8-chloro-N-(4-(1-(difluoromethyl)cyclopropyl)phenyl)quinolin-2-amine] | 1.5 | 85 | 81
Fc1cc(Cl)c2nc(Nc3ccc(C4(C(F)(F)F)CC4)cn3)ccc2c1 [Compound 10, 8-chloro-6-fluoro-N-(5-(1-(trifluoromethyl)cyclopropyl)pyridin-2-yl)quinolin-2-amine] | 6.9 |  | 
Cc1cc(Nc2ccc3cccc(Cl)c3n2)ncc1C1(C(F)(F)F)CC1 [Compound 13, 8-chloro-N-(4-methyl-5-(1-(trifluoromethyl)cyclopropyl)pyridin-2-yl)quinolin-2-amine] | 5.9 |  | 
N#Cc1cc(Cl)c2nc(Nc3ccc(C4(C(F)(F)F)CC4)cc3)ccc2c1 [Compound 20, 8-chloro-2-((4-(1-(trifluoromethyl)cyclopropyl)phenyl)amino)quinolin-6-carbonitrile] | 15.2 |  | 
CC(C)(c1ccc(Nc2ccc3cccc(Cl)c3n2)cc1)C(F)F [Compound 22, 8-chloro-N-(4-(1,1-difluoro-2-methylpropan-2-yl)phenyl)quinolin-2-amine] | 1.96 |  | 
FC(F)(F)C1(c2ccnc(Nc3ccc4cccc(Cl)c4n3)c2)CC1 [Compound 6, 8-chloro-N-(4-(1-(trifluoromethyl)cyclopropyl)pyridin-2-yl)quinolin-2-amine] | 7.28 |  | 
FC(F)(F)C1(c2ccc(Nc3ccc4cccc(Cl)c4n3)cc2)CC1 [Compound 4, 8-chloro-N-(4-(1-(trifluoromethyl)cyclopropyl)phenyl)quinolin-2-amine] | 15.9 | 84 | 85
COc1cc(C2(C(F)(F)F)CC2)ccc1Nc1ccc2cccc(Cl)c2n1 [Compound 8, 8-chloro-N-(2-methoxy-4-(1-(trifluoromethyl)cyclopropyl)phenyl)quinolin-2-amine] | 6 |  | 
Fc1cc(Nc2ccc3cccc(Cl)c3n2)ncc1C1(C(F)(F)F)CC1 [Compound 15, 8-chloro-N-(4-fluoro-5-(1-(trifluoromethyl)cyclopropyl)pyridin-2-yl)quinolin-2-amine] | 1.99 |  | 
CC(C)(c1ccc(Nc2ccc3cccc(Cl)c3n2)cc1)C(F)(F)F [Compound 3, 8-chloro-N-(4-(1,1,1-trifluoro-2-methylprop-2-yl)phenyl)quinolin-2-amine] | 7.33 |  | 
FC(F)(F)C1(c2cccc(Nc3ccc4cccc(Cl)c4n3)c2)CC1 [Compound 9, 8-chloro-N-(3-(1-(trifluoromethyl)cyclopropyl)phenyl)quinolin-2-amine] | 4.24 |  | 
FC(F)(F)C1(c2ccc(Nc3ccc4cccc(Cl)c4n3)nc2)CC1 [Compound 2, 8-chloro-N-(5-(1-(trifluoromethyl)cyclopropyl)pyridin-2-yl)quinolin-2-amine] | 8.35 |  | 
Fc1cc(Cl)c2nc(Nc3cc(C4(C(F)(F)F)CC4)ccn3)ccc2c1 [Compound 17, 8-chloro-6-fluoro-N-(4-(1-(trifluoromethyl)cyclopropyl)pyridin-2-yl)quinolin-2-amine] | 56.4 |  | 
N#Cc1cc(Cl)c2nc(Nc3ccc(C4(C(F)(F)F)CC4)cn3)ccc2c1 [Compound 19, 8-chloro-2-((5-(1-(trifluoromethyl)cyclopropyl)pyridin-2-yl)amino)quinolin-6-nitrile] | 118 |  | 
FC(F)(F)C1(c2cnc(Nc3ccc4cccc(Cl)c4n3)cn2)CC1 [Compound 14, 8-chloro-N-(5-(1-(trifluoromethyl)cyclopropyl)Pyrazin-2-yl)quinolin-2-amine] | 8.1 |  | 
CS(=O)(=O)c1cc(Cl)c2nc(Nc3ccc(C4(C(F)(F)F)CC4)cc3)ccc2c1 [Compound 21] | 21.2 |  | 
FC(F)(F)C1(c2ccc(Nc3ccc4cccc(Cl)c4n3)cn2)CC1 [Compound 7, 8-chloro-N-(6-(1-(trifluoromethyl)cyclopropyl)pyridine-3-yl)quinolin-2-amine] | 1.8 |  | 
